Measured values published in PubChem BioAssay (NCI).
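Method: 48-hour compound exposure of cells in 96-well plates, five concentrations, linear interpolation of endpoints. TGI is the concentration that stops growth completely.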

Experiments:
Test in all cases: NCI tumour cell line growth inhibition, 48 h
786-0 renal = test system: 786-0 renal
A498 renal = test system: A498 renal
A549 NSCLC = test system: A549 NSCLC
ACHN renal = test system: ACHN renal
CAKI-1 renal = test system: CAKI-1 renal
CCRF-CEM leukemia = test system: CCRF-CEM leukemia
COLO 205 colon = test system: COLO 205 colon
DLD-1 colon = test system: DLD-1 colon
DMS 273 small cell lung = test system: DMS 273 small cell lung
EKVX NSCLC = test system: EKVX NSCLC
HCC-2998 colon = test system: HCC-2998 colon
HCT-116 colon = test system: HCT-116 colon
HCT-15 colon = test system: HCT-15 colon
HL-60(TB) leukemia = test system: HL-60(TB) leukemia
HOP-18 NSCLC = test system: HOP-18 NSCLC
HOP-62 NSCLC = test system: HOP-62 NSCLC
HOP-92 NSCLC = test system: HOP-92 NSCLC
HT29 colon = test system: HT29 colon
IGROV1 ovarian = test system: IGROV1 ovarian
K-562 leukemia = test system: K-562 leukemia
KM20L2 colon = test system: KM20L2 colon
LOX IMVI melanoma = test system: LOX IMVI melanoma
LXFL 529 NSCLC = test system: LXFL 529 NSCLC
M14 melanoma = test system: M14 melanoma
M19-MEL melanoma = test system: M19-MEL melanoma
MALME-3M melanoma = test system: MALME-3M melanoma
MOLT-4 leukemia = test system: MOLT-4 leukemia
NCI-H226 lung = test system: NCI-H226 lung
NCI-H23 lung = test system: NCI-H23 lung
NCI-H522 lung = test system: NCI-H522 lung
OVCAR-3 ovarian = test system: OVCAR-3 ovarian
OVCAR-4 ovarian = test system: OVCAR-4 ovarian
OVCAR-5 ovarian = test system: OVCAR-5 ovarian
OVCAR-8 ovarian = test system: OVCAR-8 ovarian
RPMI-8226 leukemia = test system: RPMI-8226 leukemia
RXF-631 renal = test system: RXF-631 renal
SF-268 CNS = test system: SF-268 CNS
SF-295 CNS = test system: SF-295 CNS
SF-539 CNS = test system: SF-539 CNS
SK-MEL-2 melanoma = test system: SK-MEL-2 melanoma
SK-MEL-28 melanoma = test system: SK-MEL-28 melanoma
SK-MEL-5 melanoma = test system: SK-MEL-5 melanoma
SK-OV-3 ovarian = test system: SK-OV-3 ovarian
SN12C renal = test system: SN12C renal
SNB-19 CNS = test system: SNB-19 CNS
SNB-75 CNS = test system: SNB-75 CNS
SR leukemia = test system: SR leukemia
SW-620 colon = test system: SW-620 colon
TK-10 renal = test system: TK-10 renal
U251 CNS = test system: U251 CNS
UACC-257 melanoma = test system: UACC-257 melanoma
UACC-62 melanoma = test system: UACC-62 melanoma
UO-31 renal = test system: UO-31 renal
BT-549 breast = test system: BT-549 breast
DMS 114 small cell lung = test system: DMS 114 small cell lung
DU-145 prostate = test system: DU-145 prostate
HS 578T breast = test system: HS 578T breast
KM12 colon = test system: KM12 colon
MCF7 breast = test system: MCF7 breast
MDA-MB-231 breast = test system: MDA-MB-231 breast
MDA-MB-435 = test system: MDA-MB-435
MDA-N = test system: MDA-N
NCI-H460 lung = test system: NCI-H460 lung
NCI/ADR-RES ovarian = test system: NCI/ADR-RES ovarian
PC-3 prostate = test system: PC-3 prostate
RXF 393 renal = test system: RXF 393 renal
SNB-78 CNS = test system: SNB-78 CNS
T-47D breast = test system: T-47D breast
XF 498 CNS = test system: XF 498 CNS

Compound: CC1=C(C(=O)Nc2ccccc2)C(c2ccccc2Cl)C(C(=O)Nc2ccccc2)=C(C)N1
- TGI (786-0 renal): 42.1 µM
- TGI (A498 renal): 58.5 µM
- TGI (A549 NSCLC): > 100 µM
- TGI (ACHN renal): 94.1 µM
- TGI (CAKI-1 renal): 57.2 µM
- TGI (CCRF-CEM leukemia): 62.1 µM
- TGI (COLO 205 colon): 34.3 µM
- TGI (DLD-1 colon): > 100 µM
- TGI (DMS 273 small cell lung): 41.9 µM
- TGI (EKVX NSCLC): 37.7 µM
- TGI (HCC-2998 colon): 43.5 µM
- TGI (HCT-116 colon): 47.6 µM
- TGI (HCT-15 colon): 38.5 µM
- TGI (HL-60(TB) leukemia): 31.8 µM
- TGI (HOP-18 NSCLC): 56.5 µM
- TGI (HOP-62 NSCLC): 38.5 µM
- TGI (HOP-92 NSCLC): 45.2 µM
- TGI (HT29 colon): 37.9 µM
- TGI (IGROV1 ovarian): 65.4 µM
- TGI (K-562 leukemia): 93.5 µM
- TGI (KM20L2 colon): 38.9 µM
- TGI (LOX IMVI melanoma): 33.6 µM
- TGI (LXFL 529 NSCLC): 37.1 µM
- TGI (M14 melanoma): 33.3 µM
- TGI (M19-MEL melanoma): 36 µM
- TGI (MALME-3M melanoma): 39.7 µM
- TGI (MOLT-4 leukemia): 60.1 µM
- TGI (NCI-H226 lung): 59 µM
- TGI (NCI-H23 lung): 71.7 µM
- TGI (NCI-H522 lung): 35.4 µM
- TGI (OVCAR-3 ovarian): 40.5 µM
- TGI (OVCAR-4 ovarian): > 100 µM
- TGI (OVCAR-5 ovarian): 61.2 µM
- TGI (OVCAR-8 ovarian): 91.8 µM
- TGI (RPMI-8226 leukemia): 46.9 µM
- TGI (RXF-631 renal): > 100 µM
- TGI (SF-268 CNS): 50.5 µM
- TGI (SF-295 CNS): 66.9 µM
- TGI (SF-539 CNS): 37.6 µM
- TGI (SK-MEL-2 melanoma): 33.1 µM
- TGI (SK-MEL-28 melanoma): 61.9 µM
- TGI (SK-MEL-5 melanoma): 29.8 µM
- TGI (SK-OV-3 ovarian): 80 µM
- TGI (SN12C renal): 33 µM
- TGI (SNB-19 CNS): 92.7 µM
- TGI (SNB-75 CNS): 76.4 µM
- TGI (SR leukemia): 52.6 µM
- TGI (SW-620 colon): 76.2 µM
- TGI (TK-10 renal): > 100 µM
- TGI (U251 CNS): 35.8 µM
- TGI (UACC-257 melanoma): 38.5 µM
- TGI (UACC-62 melanoma): 27.2 µM
- TGI (UO-31 renal): 84.4 µM

Compound: O=C(NC(=O)c1c(Cl)nc2sccn12)Nc1ccc(Cl)cc1
- TGI (786-0 renal): > 90.1 µM
- TGI (A498 renal): > 97.6 µM
- TGI (A549 NSCLC): > 100 µM
- TGI (ACHN renal): > 100 µM
- TGI (BT-549 breast): > 81.9 µM
- TGI (CAKI-1 renal): > 100 µM
- TGI (CCRF-CEM leukemia): > 100 µM
- TGI (COLO 205 colon): > 100 µM
- TGI (DLD-1 colon): > 100 µM
- TGI (DMS 114 small cell lung): > 100 µM
- TGI (DMS 273 small cell lung): > 100 µM
- TGI (DU-145 prostate): > 100 µM
- TGI (EKVX NSCLC): > 100 µM
- TGI (HCC-2998 colon): > 93.6 µM
- TGI (HCT-116 colon): > 100 µM
- TGI (HCT-15 colon): > 100 µM
- TGI (HL-60(TB) leukemia): > 100 µM
- TGI (HOP-62 NSCLC): 43.3 µM
- TGI (HOP-92 NSCLC): 66.6 µM
- TGI (HS 578T breast): 62.9 µM
- TGI (HT29 colon): > 100 µM
- TGI (IGROV1 ovarian): > 100 µM
- TGI (K-562 leukemia): > 100 µM
- TGI (KM12 colon): > 100 µM
- TGI (KM20L2 colon): > 100 µM
- TGI (LOX IMVI melanoma): > 100 µM
- TGI (M14 melanoma): > 100 µM
- TGI (M19-MEL melanoma): > 100 µM
- TGI (MALME-3M melanoma): > 100 µM
- TGI (MCF7 breast): > 100 µM
- TGI (MDA-MB-231 breast): 68.5 µM
- TGI (MDA-MB-435): > 100 µM
- TGI (MDA-N): > 100 µM
- TGI (MOLT-4 leukemia): > 100 µM
- TGI (NCI-H226 lung): 89.7 µM
- TGI (NCI-H23 lung): 88.1 µM
- TGI (NCI-H460 lung): > 100 µM
- TGI (NCI-H522 lung): > 100 µM
- TGI (NCI/ADR-RES ovarian): > 100 µM
- TGI (OVCAR-3 ovarian): > 100 µM
- TGI (OVCAR-4 ovarian): > 100 µM
- TGI (OVCAR-5 ovarian): > 100 µM
- TGI (OVCAR-8 ovarian): > 100 µM
- TGI (PC-3 prostate): > 56.2 µM
- TGI (RPMI-8226 leukemia): > 100 µM
- TGI (RXF 393 renal): 76.2 µM
- TGI (RXF-631 renal): > 100 µM
- TGI (SF-268 CNS): 53.9 µM
- TGI (SF-295 CNS): 70.2 µM
- TGI (SF-539 CNS): 73.1 µM
- TGI (SK-MEL-2 melanoma): > 100 µM
- TGI (SK-MEL-28 melanoma): > 100 µM
- TGI (SK-MEL-5 melanoma): > 100 µM
- TGI (SK-OV-3 ovarian): 57.5 µM
- TGI (SN12C renal): > 100 µM
- TGI (SNB-19 CNS): 74.1 µM
- TGI (SNB-75 CNS): 47.1 µM
- TGI (SNB-78 CNS): > 100 µM
- TGI (SR leukemia): > 100 µM
- TGI (SW-620 colon): > 100 µM
- TGI (T-47D breast): > 100 µM
- TGI (TK-10 renal): 89.2 µM
- TGI (U251 CNS): 55.9 µM
- TGI (UACC-257 melanoma): > 100 µM
- TGI (UACC-62 melanoma): > 100 µM
- TGI (UO-31 renal): > 84.4 µM
- TGI (XF 498 CNS): 42.3 µM
